The source of these data is patent US7087392B2, “Antiproliferative SgK reagents and methods” (The Regents of the University of California, priority 1999, dated 2006).

Where a chain is given by its changes, count along the chain named. In names and notes the source's numbering stands.

One data set deals with endogenous Sgk. Nature of the data set: Phosphorylation state of Sgk in treated cells. In kind it is cell-based. The conditions noted are these: treatment of cells; serum stimulated mammary tumor cells for the PI 3-kinase inhibitors. The source says:
(§1) Cotransfection of PDK1 with Sgk caused a 6-fold activation of Sgk activity, whereas, the kinase-dead form of PDK1 had no effect. […] The Ser-78 in the amino terminal domain is a third phosphorylation site and expression of the S78G Sgk mutation ablates the presence of the slowest migrating form of phosphorylated Sgk in SDS polyacrylamide gels.

The subject of the next data set is Sgk. Nature of the data set: In vitro peptide kinase assay (Sgktide, [32P]ATP) of immunoprecipitated HA-Sgk. The following applies: for effect of cell treatment on Sgk enzymatic activity: activators or inhibitor of PI 3-kinase pathway; for kinase activity / activation of Sgk mutant: mutant forms of Sgk. It is filed as biochemical.
Excerpt: Sgk is a component of the PI3 kinase cascade and is directly activated by PDK1 mediated phosphorylation of threonine 256 in the activation loop. […] To develop this kinase assay, lysates from human embryo kidney 293 cells transfected to express wild type hemagglutinin (HA)-tagged Sgk (HA-Sgk) were isolated and the Sgk immunoprecipitated with HA antibodies was used to screen a synthetic peptide library for identifying potential Sgk substrates. The immunoprecipitates were extensively washed, and incubated with the peptide in the presence of [^32P]ATP in kinase buffer (Park et al 1999). Sgk phosphorylated several peptides, and the best substrate for Sgk was KKRNRRLSVA (SEQ ID NO:01), which is named Sgktide. […] This substrate specificity is generally similar to, but not identical, with the substrate specificity for Akt, which is a well characterized down stream component of the PI 3 kinase pathway.
as §1

The next data set has as its system Sgk promoter. As to the kind of experiment: Hyperosmotic stress stimulation of Sgk promoter and Sgk protein production. It is filed as cell-based, mouse. The following applies: sorbitol hyperosmotic stress. The source says:
Regulation of Sgk transcription, protein utilization and enzymatic activity defines a new cellular component of the hyperosmotic stress pathway. Using mouse NMuMg nontumorigenic mammary epithelial cells, we have established that Sgk is a new component of the hyperosmotic stress response. (The key observations can be repeated in HeLa cells, MCF-7 human breast cancer cells, kidney derived cell and rat fibroblasts). […] This hyperosmotic stress regulated element can confer the hyperosmotic stress response to a heterologous promoter. […] Using a generally similar series of experiments, we have also shown that exposure of mammary epithelial cells to 40 J/m^2 UV radiation causes a rapid but transient stimulation in Sgk protein levels that peaks approximately 2 hours after this genotoxic stress.
The hyperosmotic stress cascade targets the sgk promoter by activating the p38/MAPK stress kinase. […] Co-transfection of the stress responsive Sgk-CAT reporter plasmid with a dominant negative form of MKK3, one of two upstream kinase regulators of the p38/MAPK, inhibits the sorbitol induction of the Sgk promoter.

In the next data set the test system is Sgk and Erk/MAPK. Nature of the data set: Subcellular localization of Sgk and Erk/MAPK in mammary tumor cells. In kind it is cell-based. The conditions noted are these: MEK inhibitor treatment. The source says: Sgk/MAPK interactions: new level of cross talk between GR and phosphorylation cascades. We also observed that the enzymatic activity and subcellular localization of Sgk and the Erk1/Erk2 members of the Mitogen Activated Protein Kinase (MAPK) gene family are co-regulated in a stimulus-dependent manner. […] Wild type or kinase dead forms of Sgk can be co-immunoprecipitated with Erk/MAPK from either serum- or dexamethasone-treated mammary tumor cells. […] Conversely, the forced cellular localization of ectopically expressed Sgk into the nucleus, using the NLS-Sgk, or into the cytoplasmic compartment using the wild type sgk gene, caused Erk/MAPK to co-localize with Sgk.

A further data set relates to mammary tumor cells. Nature of the data set: Transient cell foci growth assay of transfected mammary tumor cells. It is filed as cell-based. The conditions noted are these: transfected expression vector. The source says:
Functional evidence for a direct role of sgk in the glucocorticoid anti-proliferative pathway. In both the Con8 mammary epithelial tumor cells (from which Sgk was originally cloned) as well as human MCF-7 breast cancer cells (which were originally derived from a pleural effusion of a metastatic human breast adenocarcinoma) glucocorticoids induce a G1 block in cell cycle progression and strongly stimulate sgk transcript and protein production. […] To initially test whether Sgk has an anti-proliferative function and perhaps mediates the glucocorticoid growth inhibitory response, the full length rat or human wild type sgk cDNA was inserted downstream of the cytomegalovirus (CMV) promoter in an expression vector that also encodes the neomycin resistance gene. […] Transfection competent cells were selected in 0.5 mg/ml of the G418 neomycin derivative for two weeks.
Expression vectors encoding several point mutants or truncations of Sgk were transfected into the mammary tumor cells and cell growth monitored by the cell foci assay.
Transient transfection and rapid screen of the sgk expression vectors for the anti-proliferative response in rodent and human mammary tumor cells. A transient cell foci growth assay is employed to rapidly screen the various Sgk constructs to define the domains that mediate the anti-proliferative response in rat and human mammary tumor cells using our optimized conditions. The advantage of this assay is that many different mutant Sgk expression vectors can be simultaneously compared for their growth inhibitory effects. Also, this assay can be used to rapidly assess the proliferative effects of combinations of Sgk and its interacting proteins or substrates. Populations of human MCF-7 breast cancer cells or rat Con8 mammary tumor cells are transfected by the lipofectin transfection procedures and cultured in normally cytotoxic concentrations (750 μg/ml) of the G418 neomycin derivative to recover transfection competent cells. Approximately 5000 transfected cells are cultured as colonies on plastic, and after one to two weeks are fixed and stained in crystal violet/formalin to visualize the cell colonies. The effects on cell proliferation are quantitated by simply counting the resulting cell colonies or by scanning the total cell density on each plate. To provide a control for the fidelity of the cell foci assays, in each experiment, cells transfected with the control vectors (no Sgk sequences) are treated with or without 1 μM dexamethasone because the cells are growth suppressed by this synthetic glucocorticoid. […]

With `C=C1[C@@H](O)[C@@H]2O[C@]3(CC[C@H](/C=C/[C@@H](C)[C@@H]4CC(C)=C[C@@]5(O[C@H](C[C@@](C)(O)C(=O)O)CC[C@H]5O)O4)O3)CC[C@H]2O[C@@H]1[C@@H](O)C[C@H](C)[C@H]1O[C@@]2(CCCCO2)CC[C@H]1C` [okadaic acid], the “generation of hyperphosphorylated form of Sgk” value in the data set with endogenous Sgk is reported as “generates a hyperphosphorylated active Sgk”.

As for pervanadate [reference compound], the “effect of cell treatment on Sgk enzymatic activity” value (“effect of cell treatment” below) in the data set with Sgk is given as “stimulated Sgk enzymatic activity”.

Turning to `Oc1ccc(-c2nc(-c3ccncc3)c(-c3ccc(F)cc3)[nH]2)cc1` [SB202190], in the data set with Sgk promoter, the “hyperosmotic stress-stimulation of the Sgk promoter and Sgk protein production” value was “dampens the hyperosmotic stress-stimulation of the Sgk promoter and Sgk protein production”.

Consider `C[S+]([O-])c1ccc(-c2nc(-c3ccncc3)c(-c3ccc(F)cc3)[nH]2)cc1` (centres unmarked) [SB203580], for which, in the data set on Sgk promoter, the “hyperosmotic stress-stimulation of the Sgk promoter and Sgk protein production” value is “dampens the hyperosmotic stress-stimulation of the Sgk promoter and Sgk protein production”.

As for `COc1cccc(-c2cc(=O)c3ccccc3o2)c1N` [PD98059], the “subcellular distribution of Sgk and Erk/MAPK” value with Sgk and Erk/MAPK was “caused both Sgk and Erk/MAPK to localize to the cytoplasm”.

For “insulin: hormonal activator of the PI 3-kinase pathway [reference compound]”, the “effect of cell treatment” value with Sgk is “stimulated Sgk enzymatic activity”.

Consider “IGF-1: hormonal activator of the PI 3-kinase pathway [reference compound]”, for which the “effect of cell treatment” value in the data set on Sgk is “stimulated Sgk enzymatic activity”.

B1: T256D/S422D: Sgk double mutation T256D and S422D (protein, UniProt O00141 1-431, looked up, variant T256D S422D)
Serine/threonine-protein …: MTVKTEAAKGTLTYSRMRGMVAILIAFMKQRRMGLNDFIQKIANNSYACKHPEVQSILKISQPQEPELMNANPSPPPSPSQQINLGPSSNPHAKPSDFHFLKVIGKGSFGKVLLARHKAEEVFYAVKVLQKKAILKKKEEKHIMSERNVLLKNVKHPFLVGLHFSFQTADKLYFVLDYINGGELFYHLQRERCFLEPRARFYAAEIASALGYLHSLNIVYRDLKPENILLDSQGHIVLTDFGLCKENIEHNSTTSDFCGTPEYLAPEVLHKQPYDRTVDWWCLGAVLYEMLYGLPPFYSRNTAEMYDNILNKPLQLKPNITNSARHLLEGLLQKDRTKRLGAKDDFMEIKSHVFFSLINWDDLINKKITPPFNPNVSGPNDLRHFDPEFTEEPVPNSIGKSPDSVLVTASVKEAAEAFLGFDYAPPTDSFL
For the molecule B1, in the data set on Sgk, the “kinase activity / activation of Sgk mutant” value (“kinase activity / activation” below) is “not constitutively active”.

B2: S422D: Sgk with serine 422 changed to aspartate (protein, UniProt O00141 1-431, looked up, variant S422D)
Serine/threonine-protein …: B1 Serine/threonine-protein … with D256T
For B2, the “kinase activity / activation” value with Sgk is “partially active”.

B3: S422A: Sgk with serine 422 changed to alanine (protein, UniProt O00141 1-431, looked up, variant S422A)
Serine/threonine-protein …: B1 Serine/threonine-protein … with D256T, D422A
With B3, the “kinase activity / activation” value with Sgk is “inhibited Sgk activation”.

B4: T256D: Sgk with threonine 256 changed to aspartate (protein, UniProt O00141 1-431, looked up, variant T256D)
Serine/threonine-protein …: B1 Serine/threonine-protein … with D422S
On to B4, for which the “kinase activity / activation” value in the data set with Sgk is reported as “partially active”.

B5: T256A: Sgk with threonine 256 in the activation loop changed to alanine (protein, UniProt O00141 1-431, looked up, variant T256A)
Serine/threonine-protein …: B1 Serine/threonine-protein … with D256A, D422S
Turning to B5, the “reduction in number of cell foci compared to the vector control” value in the data set with mammary tumor cells (G418 selection) is 20 fold.

B6: C1–355: C-terminal Sgk truncation missing the last 75 amino acids (protein, UniProt O00141 1-355, looked up, fragment)
chain: MTVKTEAAKGTLTYSRMRGMVAILIAFMKQRRMGLNDFIQKIANNSYACKHPEVQSILKISQPQEPELMNANPSPPPSPSQQINLGPSSNPHAKPSDFHFLKVIGKGSFGKVLLARHKAEEVFYAVKVLQKKAILKKKEEKHIMSERNVLLKNVKHPFLVGLHFSFQTADKLYFVLDYINGGELFYHLQRERCFLEPRARFYAAEIASALGYLHSLNIVYRDLKPENILLDSQGHIVLTDFGLCKENIEHNSTTSTFCGTPEYLAPEVLHKQPYDRTVDWWCLGAVLYEMLYGLPPFYSRNTAEMYDNILNKPLQLKPNITNSARHLLEGLLQKDRTKRLGAKDDFMEIKSHVFF
Regarding B6, in the data set with mammary tumor cells, the “effect on cell growth (cell foci assay)” value is recorded as “little or no effect on cell growth”.

B7: N60–431: N-terminal truncated Sgk (protein, UniProt O00141 60-431, looked up, fragment)
chain: ISQPQEPELMNANPSPPPSPSQQINLGPSSNPHAKPSDFHFLKVIGKGSFGKVLLARHKAEEVFYAVKVLQKKAILKKKEEKHIMSERNVLLKNVKHPFLVGLHFSFQTADKLYFVLDYINGGELFYHLQRERCFLEPRARFYAAEIASALGYLHSLNIVYRDLKPENILLDSQGHIVLTDFGLCKENIEHNSTTSTFCGTPEYLAPEVLHKQPYDRTVDWWCLGAVLYEMLYGLPPFYSRNTAEMYDNILNKPLQLKPNITNSARHLLEGLLQKDRTKRLGAKDDFMEIKSHVFFSLINWDDLINKKITPPFNPNVSGPNDLRHFDPEFTEEPVPNSIGKSPDSVLVTASVKEAAEAFLGFSYAPPTDSFL
Consider B7, for which the “effect on cell growth (cell foci assay)” value with mammary tumor cells is listed as “more effectively suppresses tumor cell growth compared to the full length Sgk protein”.
